The values below come from patent US20240076279A1, “NOVEL BENZOAZEPINE COMPOUND, AND COMPOSITION AND USE THEREOF” (XUZHOU MEDICAL UNIVERSITY, priority 2021, published 2024).

Structures are written as SMILES.

Data set [1] deals with human V2R (Homo sapiens, UniProt P30518). As to conditions: for residence time: read-out: RT (residence time of the compound to be tested on cells); for koff: read-out: koff (dissociation constant between the compound to be tested and cells); for kon: read-out: kon (association constant between the compound to be tested and cells).
Sequence of human V2R (P30518 whole entry): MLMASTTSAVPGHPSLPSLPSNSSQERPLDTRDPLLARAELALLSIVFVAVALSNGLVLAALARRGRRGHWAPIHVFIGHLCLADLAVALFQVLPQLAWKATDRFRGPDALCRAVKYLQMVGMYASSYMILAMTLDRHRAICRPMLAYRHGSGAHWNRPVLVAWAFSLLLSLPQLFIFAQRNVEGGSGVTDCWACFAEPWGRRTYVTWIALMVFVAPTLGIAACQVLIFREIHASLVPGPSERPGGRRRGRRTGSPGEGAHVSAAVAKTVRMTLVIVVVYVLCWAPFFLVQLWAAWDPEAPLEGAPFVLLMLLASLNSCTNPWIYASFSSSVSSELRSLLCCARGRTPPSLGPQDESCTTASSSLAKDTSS
Data set [2] has as its system MDCK cells. The experiment in a line: PKD vesicle experiment (forskolin-induced vesicles of MDCK cells in matrigel). The following applies: 10 μM Forsklin, day 12. In kind it is cell-based. As to the method:
The vesicles similar to those in PKD disease are formed by using MDCK cells under the action of AC enzyme agonist forskolin to simulate the occurrence and development of the disease, and the test compounds are respectively administered to observe their effects on the vesicles.
The MDCK cells were cultured at 37° C./5% CO2, with DMEM F12 medium (purchased from Combio technology company) supplemented with 10% fetal bovine serum and 1% double antibody.
During the re-cooling of matrigel, MDCK cells were digested and counted. […] The cells were incubated for 12 days, in which the medium was changed every 12 h, and photos were taken at days 4, 6, 8, 10, and 12. The photo area was selected to track the specific vesicles.
The diameters of vesicles were compared on day 12 to assess the effect of test compounds.

For data set [3], the system named is PKD1 knockout mice. The experiment in a line: PKD mouse experiment. In kind it is in vivo. The following applies: 2 mg/kg subcutaneous injection, seven days of administration. From the text: Such compounds have antagonistic effects on arginine vasopressin receptors, and can inhibit the effect of cAMP in vivo, thereby inhibiting the occurrence and development of PKD. In this experiment, PKD1 knockout mice were used to evaluate the efficacy of these compounds.
1. Numbering the mice to perform gene identification: After 3 days of birth, the mice were marked by the method of cutting toes. The cut toes were placed in EP tubes marked in advance to boil, and then the genes were identified by agarose electrophoresis after PCR.
2. Preparation of corresponding medicaments: The corresponding weights of drugs were precisely weighed with an electronic balance and placed in new EP tubes. Then the corresponding amounts of HPMC were added with a pipette to prepare the medicaments of the desired concentration.
3. Administration to mice: The administrations of medicaments to mice was started on Day 6 or 5 after birth (the underweight mice were administered with medicaments on Day 6, and the rest of mice were administered with medicaments on Day 5), and the administration time was fixed (for example, 9:00 am). […]
5. Data processing: The total weight of the left and right kidneys, and the proportion of the kidneys, etc. were calculated.

The test system of data set [4] is ADPKD patients. As to conditions: cited from earlier work.

Broadly, the koff is the rate constant with which the complex falls apart. As a reminder, the kon is the second-order rate constant of association. Consider `Cc1ccccc1C(=O)Nc1ccc(C(=O)N2CCCC(NCCCN3CCN(C)CC3)c3cc(Cl)ccc32)c(C)c1` (stereo not drawn) [Compound 17, N-(4-(7-chloro-5-((3-(4-methylpiperazin-1-yl)propyl)amino)-2,3,4,5-tetrahydro-1H-benzo[b]azepine-1-carbonyl)-3-methylphenyl)-2-methylbenzamide], for which, in data set [1], the residence time is 7 ± 1 min, the koff was 0.00233 s⁻¹ and the kon is 350000 M⁻¹ s⁻¹.

Consider `Cc1ccccc1C(=O)Nc1ccc(C(=O)N2CCCC(NCCCc3ccncc3)c3cc(Cl)ccc32)c(C)c1` (stereo not drawn) [Compound 5, N-(4-(7-chloro-5-((3-(pyridin-4-yl)propyl)amino)-2,3,4,5-tetrahydro-1H-benzo[b]azepine-1-carbonyl)-3-methylphenyl)-2-methylbenzamide], for which, in data set [1], the residence time stood at 13 ± 1 min, the koff is 0.00125 s⁻¹ and the kon is 165000 M⁻¹ s⁻¹. The “affinity to V2R compared with Tolvaptan” value in data set [1] (text summary of Table 7) is given as “comparable to the affinity of Tolvaptan”.

Regarding `Cc1ccccc1C(=O)Nc1ccc(C(=O)N2CCCC(NCCCCCN3CCOCC3)c3cc(Cl)ccc32)c(C)c1` (stereo not drawn) [Compound 3, N-(4-(7-chloro-5-((5-morpholinopentyl)amino)-2,3,4,5-tetrahydro-1H-benzo[b]azepine-1-carbonyl)-3-methylphenyl)-2-methylbenzamide], in data set [1], the residence time came to 14 ± 2 min, the koff is 0.00118 s⁻¹ and the kon was 105000 M⁻¹ s⁻¹.

For the compound `Cc1ccccc1C(=O)Nc1ccc(C(=O)N2CCCC(NCCCN3CCOCC3)c3cc(Cl)ccc32)c(C)c1` (stereo not drawn) [Compound 1, N-(4-(7-chloro-5-((3-morpholinopropyl)amino)-2,3,4,5-tetrahydro-1H-benzo[b]azepine-1-carbonyl)-3-methylphenyl)-2-methylbenzamide], the “The diameter of vesicles” value in data set [2] is 172.0 μm. In addition, in data set [3], the “Proportion of the kidneys %” value is 11.85%.

In general, Ki refers to a measure of affinity in units of concentration, obtained from inhibition or displacement. Low readings indicate a stronger hold on the target, high ones a looser hold on the target. As for `Cc1ccccc1C(=O)Nc1ccc(C(=O)N2CCCC(NCCOc3ccccc3)c3cc(Cl)ccc32)c(C)c1` (stereo not drawn) [Compound 21, N-(4-(7-chloro-5-((2-phenoxyethyl)amino)-2,3,4,5-tetrahydro-1H-benzo[b]azepine-1-carbonyl)-3-methylphenyl)-2-methylbenzamide], in data set [1], the Ki worked out at 77 ± 26 nM, the residence time turned out to be 17 ± 2 min, the koff was 0.001 s⁻¹ and the kon is 18300 M⁻¹ s⁻¹.

On to `Cc1ccccc1C(=O)Nc1ccc(C(=O)N2CCCC(O)c3cc(Cl)ccc32)c(C)c1` (stereo not drawn) [Tolvaptan, tolvaptan, reference compound], for which the serum hepatic transaminases entry in data set [4] (clinical trials, some patients) is “increased to more than three times the normal level”. Also, in data set [4] (prospective study, 30 ADPKD patients, after administration), the “excretion rate of sodium and urea” value is “increased”. Further, in data set [2], the “The diameter of vesicles” value amounted to 183.7 μm. The “Proportion of the kidneys %” value in data set [3] came out at 15.80%.

Regarding `Cc1ccccc1C(=O)Nc1ccc(C(=O)N2CCCC(NCCN3CCOCC3)c3cc(Cl)ccc32)c(C)c1` (stereo not drawn) [Compound 4, N-(4-(7-chloro-5-((2-morpholinoethyl)amino)-2,3,4,5-tetrahydro-1H-benzo[b]azepine-1-carbonyl)-3-methylphenyl)-2-methylbenzamide], in data set [1], the residence time was found to be 21 ± 2 min, the koff was 0.000783 s⁻¹ and the kon was 333000 M⁻¹ s⁻¹. Further, in data set [1] (text summary of Table 7), the “affinity to V2R compared with Tolvaptan” value is “comparable to the affinity of Tolvaptan” and the “residence time with receptor compared with Tolvaptan” value is “longer residence time with receptor than Tolvaptan”.

As for `Cc1ccccc1C(=O)Nc1ccc(C(=O)N2CCCC(NCCC(=O)N3CCOCC3)c3cc(Cl)ccc32)c(C)c1` (stereo not drawn) [Compound 13, N-(4-(7-chloro-5-((3-morpholino-3-oxopropyl)amino)-2,3,4,5-tetrahydro-1H-benzo[b]azepine-1-carbonyl)-3-methylphenyl)-2-methylbenzamide], in data set [1], the residence time came out at 9 ± 1 min, the koff is 0.00183 s⁻¹ and the kon was 683000 M⁻¹ s⁻¹. Besides, in data set [1] (text summary of Table 7), the “affinity to V2R compared with Tolvaptan” value is “comparable to the affinity of Tolvaptan”.

With `Cc1ccccc1C(=O)Nc1ccc(C(=O)N2CCCC(NCCCCN3CCOCC3)c3cc(Cl)ccc32)c(C)c1` (stereo not drawn) [Compound 2, N-(4-(7-chloro-5-((4-morpholinobutyl)amino)-2,3,4,5-tetrahydro-1H-benzo[b]azepine-1-carbonyl)-3-methylphenyl)-2-methylbenzamide], in data set [1], the residence time is 12 ± 2 min, the koff is 0.00135 s⁻¹ and the kon was 160000 M⁻¹ s⁻¹.

On to `Cc1ccccc1C(=O)Nc1ccc(C(=O)N2CCCC(NCCCCCOc3ccccc3)c3cc(Cl)ccc32)c(C)c1` (stereo not drawn) [Compound 24, N-(4-(7-chloro-5-((5-phenoxypentyl)amino)-2,3,4,5-tetrahydro-1H-benzo[b]azepine-1-carbonyl)-3-methylphenyl)-2-methylbenzamide], for which, in data set [1], the Ki worked out at 31 ± 7 nM, the residence time is 7 ± 1 min, the koff was 0.0025 s⁻¹ and the kon is 183000 M⁻¹ s⁻¹.
